Results taken from patent US4101552A, “Novel lysergic acid amides and process for preparing same” (Richter Gedeon Vegyeszeti Gyar Rt., priority 1975, dated 1978).

How the values were obtained:
[1] = test system: blood pressure of cats; experiment: Antihypertensive effect: blood pressure of anaesthetized cats; format: in vivo, cat
Experimental: Antihypertensive effect
Method: the blood pressure of cats anaesthetized with
intraperitoneally administered 30 mg/kg of pento-
barbital was measured in the left femoral artery
by means of the Statham P 23 db manometer and re-
corded on Hellige polygraph. The compounds were
administered into the right femoral vein.
Number of animals: 2 to 5 per dose.

[2] = test system: reserpine hypothermia; experiment: Antidepressant test: antagonization of reserpine hypothermia; format: in vivo; settings: 30 mg/kg, intraperitoneally
Experimental: Antidepressant effect (Δt, ° C) and acute toxicity
Antidepressant test: antagonization of reserpine hypothermia
Dose: 30 mg/kg, intraperitoneally
Δt, ° C: change in body temperature compared to that of
Description of the method: ASKEW, B.M., Life Sci. 10, 725

[3] = test system: serotonin oedema; experiment: Antiserotonin effect in vivo: rat-sole oedema (serotonin oedema blocking)
[4] = test system: isolated rat uterus; experiment: Antiserotonin effect in vitro on isolated rat uterus; settings: read-out: In vitro ED50 (antiserotonin effect)
Text: It is characteristic of the compound that its effect is well measurable even after oral administration, indicating its ready peroral absorption.
In vitro: on isolated rat uterus
Description of the method; GADDUM, J. H. and HAMMED, L. A.: […]

[5] = Acute toxicity: LD50 on mice after 24 hours; settings: mouse, in vivo
Experimental: Acute toxicity: LD50 on mice after 24 hours.
Description of the method: […], J.T.jr. and
WILCOXON, F.J., Pharmacol. exp.

[6] = test system: renal circulation, cerebral blood-vessels, blood-vessels of other organs; experiment: Effect on renal circulation and blood-vessels of organs; settings: in vivo
Experimental: (§1) It is characteristic of one of the compounds of the present invention and having a hypotensive action that when administered in intravenous doses of 0.1 to 0.5 mg/kg to cats and dogs in pentothal anaesthesia it provokes a permanent decrease of 20 to 60 mmHg in blood pressure (Table 3). […] It might therefore be assumed that the hypotensive effect of the compound according to the invention is the result of its inhibiting effect on the sympathetic cerebral centres. These properties are the most characteristic of the dihydro-lysergic-acid-(3'-/pyrrolid-2"-on-1"-yl/-propyl)-amide bimaleate (Example 1).

[7] = test system: catecholamine content of the organs; experiment: Catecholamine content of the organs; settings: in vivo
[8] = test system: alpha- or beta-sympatholytic, ganglion-blocking or adrenergic neuron-blocking action; experiment: Sympatholytic, ganglion-blocking and adrenergic neuron-blocking action; settings: in vivo
Experimental: as §1

[9] = test system: hypertension produced by stimulation of the baroreceptors and the central vagus stump; experiment: Inhibition of hypertension produced by stimulation of the baroreceptors and the central vagus stump; settings: in vivo
Experimental: as §1

[10] = test system: acute hypertension produced by the infusion of angiotensin; experiment: Inhibition of acute hypertension produced by infusion of angiotensin; settings: in vivo
[11] = po, rat-sole oedema, peroral, serotonin creatinine sulphate 5 μg per sole in 0.1 ml
[12] = sc, rat-sole oedema, subcutane, serotonin creatinine sulphate 5 μg per sole in 0.1 ml

| SMILES | Antidepressant effect, Δt (change in body temperature compared to that of the control) [2] | ED50 [3, 11] | ED50 [3, 12] | IC50 [4] | also measured |
| --- | --- | --- | --- | --- | --- |
| CN1C[C@H](C(=O)N[C@]2(C)O[C@@]3(O)[C@@H]4CCCN4C(=O)[C@H](Cc4ccccc4)N3C2=O)C[C@@H]2c3cccc4[nH]cc(c34)C[C@H]21 [Dihydroergotamine, reference compound] |  |  |  |  | Decrease in blood pressure ([1]; 0.2 mg/kg i.v.): -25 mmHg; Decrease in blood pressure, duration ([1]; 0.2 mg/kg i.v.): 0.5 h |
| CN1C[C@H](C(=O)Nc2ccnn2-c2ccccc2)C=C2c3cccc4[nH]cc(c34)C[C@H]21 [Example 11, Lysergic-acid-(1'-phenyl-pyrazol-5'-yl)-amide bimaleate] | 2.9 °C |  |  |  |  |
| CN1C[C@H](C(=O)Nc2cccc3ncccc23)C=C2c3cccc4[nH]cc(c34)C[C@H]21 [Example 10, Lysergic-acid-(quinolin-5-yl)-amide bimaleate] | 3.9 °C |  |  |  |  |
| CN1C[C@H](C(=O)NCCCN2CCCC2=O)C[C@@H]2c3cccc4c3c(cn4C)C[C@H]21 [Example 3, 1-Methyl-9,10-dihydrolysergic-acid(3'-/pyrrolid-2"-on-1"-yl/propyl)-amide bimaleate] |  | 1.5 mg/kg | 0.3 mg/kg | 5 ng/mL | Decrease in blood pressure ([1]; 0.5 mg/kg i.v.): -30 mmHg; Decrease in blood pressure, duration ([1]; 0.5 mg/kg i.v.): 2.0 h |
| C=CCOCC(O)CNC(=O)[C@@H]1C=C2c3cccc4[nH]cc(c34)C[C@H]2N(C)C1 (stereo partly shown) [Example 6, Lysergic-acid-(3'-allyloxy-2'-oxy-propyl)-amide bimaleate] | 5.4 °C |  |  |  | LD50 at 24 h ([5]; ip, intraperitoneally): 110 mg/kg; LD50 at 24 h ([5]; po, orally): 205 mg/kg |
| CN1C[C@H](C(=O)Nc2nccs2)C=C2c3cccc4[nH]cc(c34)C[C@H]21 [Example 7, Lysergic-acid-(thiazol-2'-yl)-amide bimaleate] | 8.0 °C |  |  |  |  |
| CSc1cccc(NC(=O)[C@@H]2C=C3c4cccc5[nH]cc(c45)C[C@H]3N(C)C2)c1 [Example 13, Lysergic-acid-(3'-methyl-mercapto)-anilide bimaleate] | 7.0 °C |  |  |  |  |
| Cc1ccc(NC(=O)[C@@H]2C=C3c4cccc5[nH]cc(c45)C[C@H]3N(C)C2)c(F)c1 [Example 12, Lysergic-acid-(2'-fluoro-4'-methyl-phenyl)-amide bimaleate] | 6.9 °C |  |  |  | LD50 at 24 h ([5]; ip, intraperitoneally): 30 mg/kg |
| CN1C[C@H](C(=O)NCCCN2CCCC2=O)C[C@@H]2c3cccc4[nH]cc(c34)C[C@H]21 [Example 1, 9,10-Dihydrolysergic-acid-(3'-/pyrrolid-2"-on-1"-yl/-propyl)-amide bimaleate] |  |  |  |  | effect on cerebral blood-vessels and blood-vessels of other organs [6]: does not cause a constriction of the cerebral blood-vessels or a substantial change in the blood-vessels of other organs; renal circulation [6]: tends to improve renal circulation; catecholamine content of the organs [7]: does not alter the catecholamine content of the organs; alpha- or beta-sympatholytic, ganglion-blocking or adrenergic neuron-blocking action [8]: no alpha- or beta-sympatholytic, ganglion-blocking or adrenergic neuron-blocking action; inhibition of hypertension produced by stimulation of the baroreceptors and the central vagus stump [9]: inhibits hypertension produced by the stimulation of the baroreceptors and the central vagus stump; inhibition of acute hypertension produced by infusion of angiotensin [10]: inhibits acute hypertension produced by the infusion of angiotensin |
| CN1C[C@H](C(=O)NC2=NCCS2)C[C@@H]2c3cccc4[nH]cc(c34)C[C@H]21 [Example 5, 9,10-Dihydrolysergic-acid-(thiazolin-2'-yl)-amide bimaleate] | 3.6 °C | 3 mg/kg | 0.3 mg/kg | 500 ng/mL |  |
| CC[C@@H](CO)NC(=O)[C@@H]1C=C2c3cccc4c3c(cn4C)C[C@H]2N(C)C1 (racemic) [Deseryl, N-[1-(hydroxymethyl)propyl]-1-methyl-d-/+/-lysergamide, reference compound] |  | 0.64 mg/kg |  |  | Serotonin oedema blocking effect ED50 ([3]; rat-sole oedema, subcutane, serotonin creatinine sulphate 5 μg per sole in 0.1 ml): 0/026 |
| CN1C[C@H](C(=O)NC2=NCCS2)C[C@@H]2c3cccc4c3c(cn4C)C[C@H]21 [Example 4, 1-Methyl-9,10-dihydrolysergic-acid-(2'-thiazolin-2'-yl)-amide bimaleate] | 4.1 °C | 0.12 mg/kg | 0.022 mg/kg | 0.05 ng/mL | peroral efficacy (in words) ([3]; peroral): particularly favourable peroral efficacy; peroral efficacy relative to Deseryl ([3]; peroral, surpassing the efficacy of Deseryl): about 3.5 times; LD50 at 24 h ([5]; ip, intraperitoneally): 330 mg/kg; LD50 at 24 h ([5]; po, orally): 315 mg/kg |
| Cc1cc(O)ccc1NC(=O)[C@@H]1C[C@@H]2c3cccc4c3c(cn4C)C[C@H]2N(C)C1 [Example 14, 1-Methyl-9,10-dihydrolysergic-acid-(4'-m-cresyl)-amide bimaleate] | 3.4 °C | 3 mg/kg | 0.3 mg/kg | 0.5 ng/mL |  |
| CN1C[C@H](C(=O)Nc2nccs2)C[C@@H]2c3cccc4c3c(cn4C)C[C@H]21 [Example 9, 1-Methyl-9,10-dihydrolysergic-acid-(thiazol-2'-yl)-amide bimaleate] | 4.7 °C | 1 mg/kg | 0.03 mg/kg | 500 ng/mL | Decrease in blood pressure ([1]; 1.0 mg/kg i.v.): -20 mmHg; Decrease in blood pressure, duration ([1]; 1.0 mg/kg i.v.): 1.5 h |
| CN1C[C@H](C(=O)NCCCN2CCCC2=O)C=C2c3cccc4[nH]cc(c34)C[C@H]21 [Example 2, Lysergic-acid-(3'-/pyrrolid-2"-on-1"-yl/-propyl)-amide bimaleate] | 3.5 °C |  |  |  | Decrease in blood pressure ([1]; 0.5 mg/kg i.v.): -50 mmHg; Decrease in blood pressure, duration ([1]; 0.5 mg/kg i.v.): 1.5 h |
